# In patent US20240425555A1, “MUTANT BRD4 POLYPEPTIDES AND METHODS OF USE THEREOF” (Northwestern University, priority 2023, published 2024):
# Experiments:
# Ser2P = Ser2P ChIP-seq upon JQ1 or dBET6 treatment; format: cell-based, human; details: BRD4-IAA7 cells; series concentration of JQ1 or 250 nM dBET6, 3 h
# Experimental: (§1) FIGS. 5A-5J collectively illustrate the identification of a distinct BRD4-PTEFb population, which is active but not histone acetylation-bound. FIG. 5A illustrates the track examples for AID ChIP-seq in the BRD4-AID line and CCNT1 ChIP-seq in the BRD4-IAA7 line with/without auxin treatment (3 h). H3K27ac ChIP-seq signal in the BRD4-AID line is shown for comparison. FIG. 5B illustrates the heatmap showing the genome-wide BRD4 and CCNT1 occupancy profile and the corresponding fold change upon auxin treatment for the conditions in A. Genes ranked by BRD4 signal in control. FIG. 5C illustrates the scatter plot showing the relative promoter density of CCNT1 vs BRD4, calculated by the log 2RPKM of the ChIP-seq signals at the regions flanking (±1 Kb) the Pol II pausing sites. FIG. 5D illustrates the track examples for GFP ChIP-seq signal upon induction of GFP-tagged BRD4-FL or the indicated mutants (left). Heatmap showing the genome-wide fold changes of the GFP-tagged BRD4 mutants relative to the vector (right). The endogenous BRD4 was depleted by auxin treatment (3 h) in all samples. Genes are ranked by GFP signal in the GFP-BRD4-FL condition. FIG. 5E illustrates the track examples for CCNT1 ChIP-seq signal upon endogenous BRD4 depletion and rescue with indicated GFP-tagged mutants (left). Heatmap showing the genome-wide CCNT1 fold changes (right). […]
# CCNT1 = CCNT1 ChIP-seq with increasing concentrations of JQ1; format: cell-based, human; details: BRD4-IAA7 cells; series concentration of JQ1, 3 h
# Experimental: as §1
# Pol II pausing [1] = assay: total Pol II ChIP-seq upon auxin, JQ1, dBET6 or NVP-2 treatment; format: cell-based, human; details: BRD4-IAA7 cells
# From the text: FIG. 1A illustrates the updated BRD4-IAA7 degron line. The F-box protein AtAFB2 was integrated into the C terminus of the BRD4 locus under the control of an independent promoter. […] These treatment concentrations/durations are relevant to all of FIG. 1. […] The gene list (N=6481) in this analysis is used throughout the study (except for FIGS. 3H-J). FIG. 1D illustrates the estimated Cumulative Density Function (ECDF) of pause release ratios (PRR, reported as log 2 fold change) for auxin treatment vs untreated control. The PRR is the ratio of Pol II occupancy within gene bodies to its occupancy at promoters. A leftward shift of the curve indicates an increase in the frequency and/or duration of promoter-proximal pausing, while a rightward shift indicates reduced pausing and/or more efficient release into gene bodies.
# FIGS. 8A-8E. collectively illustrate the differences in Pol II pausing induced by BRD4 depletion and bromodomain inhibition, related to FIG. 1. FIG. 8A illustrates the western blot showing the expression of HA-tagged AtAFB2 and the auxin-induced degradation of V5-tagged BRD4 using anti-tag antibodies. FIG. 8B illustrates the western blot comparing the BRD4 protein expression level and degradation kinetics of the previously published BRD4-AID degron to those of the BRD4-IAA7 degron used in this study 12. Note: in FIGS. 8A and 8B, the BRD4-IAA7 clone used is D4 (Hygromycin selected); it is G3 (Neomycin selected) otherwise in the study. […] FIG. 8E illustrates the track examples of Pol II ChIP-seq signal at the HSPA8 and GAPDH loci upon NVP-2 treatment (2 h) and corresponding heatmaps showing Pol II occupancy profiles and fold change in occupancy vs control upon NVP-2 treatment.
# To specifically deplete BRD4 without affecting other BET proteins, we generated an updated BRD4 degron line by modifying the published miniIAA7 degron system (hereafter BRD4-IAA7) to reduce basal degradation seen with AID degron-tagged BRD4^30 (FIGS. 1A and 8A).
# DLD1 cells were crosslinked with 15 ml 1% PFA (ThermoFisher, #28908) in PBS on 15 cm plates for 10 minutes at RT and quenched by the addition of 2 ml 2.5M glycine followed by shaking for 5 minutes. Crosslinked cells were collected by scraping. Chromatin sonication was performed for 10 minutes using a Covaris E200 set to 10% duty factor, 200 cycles per burst, and 140 peak intensity power. For endogenous protein ChIP, 10-20% of mouse embryonic fibroblasts (MEF) chromatin (prepared the same way as in DLD1 cells) was added to each sample as a spike-in control. For overexpressed protein ChIP, such as GFP-ChIP, 20 ng spike-in chromatin (Active Motif, #53083) and 2 ug spike-in antibody (Active Motif, #61686) were added to each sample. Immunoprecipitation was carried out at 4° C. overnight using 5ul of Rpb1 (Cell Signaling Technology, #D8L4Y), 5ul of Ser2p (Active Motif, #61984), 10ul of CCNT1 (Cell Signaling Technology, #81464), 10ul of CDK9 (Santa Cruz Biotechnology, #sc-13130 X) antibodies, or 200ul of a cocktail consisting of 50ul of each GFP antibody (DSHB, #GFP-G1, #GFP-12A6, #GFP-12E6, #GFP-8H11). Immune complexes were enriched with Protein G-coupled Dynabeads (Invitrogen, #10004D) at 4° C. for >=4 h, and incubated with proteinase K (Roche, #3115828001) to reverse crosslink at 65° C. overnight. Eluted DNA was purified with the QIAquick PCR Purification Kit (Qiagen, #28106), and libraries were prepared using the KAPA HTP library preparation kit (Roche, #07961901001) for sequencing on the NovaSeq 6000.
# Reads were aligned to hg38 with bowtie 1/250. Genes (N=6,481) with pausing site and TES annotation were obtained from a previously published study51. Promoter regions were designated as spanning from 100 bp upstream to 300 bp downstream of the pausing site. Gene body regions were designated as spanning from 300 bp downstream of the pausing site to the TES. FeatureCounts 2.0.152 was used to calculate the total mapped reads from Pol II ChIP-seq at promoters and within gene bodies. […]
# Pol II pausing [2] = details: reference 21; cited from earlier work
smiles,measurement,setting,value
Cc1sc2c(c1C)C(c1ccc(Cl)cc1)=N[C@@H](CC(=O)OC(C)(C)C)c1nnc(C)n1-2 [JQ1],Ser2P ChIP-seq signals,Ser2P,minimal
same,CCNT1 ChIP-seq signals,CCNT1,decreased dramatically with increasing concentrations
same,effect on pausing at super enhancer-controlled genes such as Myc,Pol II pausing [1]; MYC locus,notable
same,Pol II pausing (Pol II occupancy profile),"Pol II pausing [1]; auxin 500 uM, JQ1 1 uM, dBET6 250 nM, 3 h",induced little to no pausing
same,gene-by-gene log 2PRR correlation with auxin treatment,Pol II pausing [1]; scatter plot,poorly correlated
same,"effect on Pol II pausing (RNA-seq, NET-seq)",Pol II pausing [2],only a modest effect on Pol II pausing
